According to patent US12428415B2, “Matriptase 2 inhibitors and uses thereof” (Disc Medicine, Inc., priority 2018, dated 2025):

Target: T1, Human Recombinant Matriptase 2 (Homo sapiens, UniProt Q8IU80)
T1 construct: purchased Enzo Life Sciences (an in-house preparation was also used) ALX-201-752-1
T1 sequence (Q8IU80 1-811): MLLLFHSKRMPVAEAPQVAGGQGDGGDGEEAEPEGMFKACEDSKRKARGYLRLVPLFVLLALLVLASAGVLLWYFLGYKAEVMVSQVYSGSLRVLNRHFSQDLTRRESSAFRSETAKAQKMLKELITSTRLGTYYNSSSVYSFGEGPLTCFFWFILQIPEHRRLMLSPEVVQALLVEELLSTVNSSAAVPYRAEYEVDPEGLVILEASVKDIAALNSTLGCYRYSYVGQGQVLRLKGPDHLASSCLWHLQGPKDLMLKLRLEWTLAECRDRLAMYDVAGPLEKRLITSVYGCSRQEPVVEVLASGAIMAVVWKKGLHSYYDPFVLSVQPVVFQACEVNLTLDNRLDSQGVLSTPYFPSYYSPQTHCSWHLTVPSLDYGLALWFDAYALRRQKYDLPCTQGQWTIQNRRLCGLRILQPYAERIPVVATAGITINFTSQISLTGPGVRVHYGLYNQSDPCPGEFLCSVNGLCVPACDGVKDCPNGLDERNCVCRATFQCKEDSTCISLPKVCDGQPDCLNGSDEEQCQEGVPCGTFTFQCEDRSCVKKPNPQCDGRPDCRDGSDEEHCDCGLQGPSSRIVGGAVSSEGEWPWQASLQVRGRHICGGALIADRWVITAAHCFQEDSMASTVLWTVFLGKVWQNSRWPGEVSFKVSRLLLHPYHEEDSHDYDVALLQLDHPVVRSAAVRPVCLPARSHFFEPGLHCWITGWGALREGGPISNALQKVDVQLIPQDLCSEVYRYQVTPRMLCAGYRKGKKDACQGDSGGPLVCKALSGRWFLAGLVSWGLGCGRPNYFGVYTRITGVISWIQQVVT
Experiment: Matriptase 2 fluorescence based inhibition assay, Method B (50 mM TRIS pH 7.5, 150 mM NaCl, 0.01% gelatin)
Format: biochemical
Conditions: 1 uM compound; Assay Used = B
In short: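 Commercial (7 nM) or in-house (15 nM) enzyme preincubated 30 min with compound at 25° C, then 100 μM Boc-Gln-Ala-Arg-AMC added; fluorescence (Ex 360/Em 480 nm) read at 60 min. 1% DMSO final. IC50 from variable-slope sigmoidal fit of % inhibition.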

SMILES | Mar-2 % inhibition at 1 uM
N=C(N)c1ccc2cc(C(=O)NCC3(CN)CCCCC3)n(Cc3cccc4ccccc34)c2c1 [Compound I-474] | D (D represents 75%≤I≤100%)

Same assay, conditions: 1 uM compound; Assay Used = B (Method B)

SMILES | Mar-2 % inhibition at 1 uM
N=C(N)c1ccc2cc(C(=O)N[C@H]3CC[C@H](N)CC3)n(Cc3ccccc3-c3ccccc3)c2c1 [Compound I-646] | A (A represents 0%≤I≤25%)

Same assay, conditions: 1 uM compound; Assay Used = B (Method B); read-out: Mar-2 % inhibition at 1 uM

SMILES | inhibition at 1 µM [%]
CS(=O)(=O)N[C@H]1CC[C@@H](NC(=O)c2cc3ccc(C(=N)N)nc3n2Cc2cccc3ccccc23)CC1 [Compound I-723] | 75 to 100
N=C(N)c1ccc2cc(C(=O)O)n(C[C@H]3CCCc4ccccc43)c2c1 (racemic) [Compound I-613] | 25 to 50
CCOC(=O)c1cc2ccc(C(=N)N)cc2n1Cc1cc(Oc2ccccc2)cc2ccccc12 [Compound I-662] | 25 to 50
N=C(N)c1ccc2cc(C(=O)O)n(Cc3c(Cl)c(Sc4ccccc4)cc4ccccc34)c2c1 [Compound I-653] | 0 to 25
N=C(N)c1ccc2cc(C(=O)O)n(-c3cc(CO)c4ccccc4c3)c2c1 [Compound I-677] | 50 to 75
N=C(N)c1ccc2cc(C(=O)N[C@H]3CC[C@H](Nc4ncccn4)CC3)n(Cc3cccc4ccccc34)c2c1 [Compound I-741] | 50 to 75
Cc1cnc(-c2cc3ccc(C(=N)N)cc3n2Cc2cccc3ccccc23)[nH]1 [Compound I-714] | 75 to 100
CNC(=O)c1cc2ccc(C(=N)N)cc2n1Cc1cccc2ccccc12 [Compound I-609] | 50 to 75
COC(=O)c1cc2ccc(C(=N)N)cc2n1Cc1cc(O)cc2ccccc12 [Compound I-696] | 50 to 75
CC(C)(C)Sc1cccc2c(Cn3c(C(=O)N[C@H]4CC[C@H](N)CC4)cc4ccc(C(=N)N)cc43)cccc12 [Compound I-739] | 75 to 100
N=C(N)c1ccc2cc(C(=O)N[C@H]3CC[C@H](N)CC3)n(Cc3ccc(Oc4ccccc4)c4ccccc34)c2c1 [Compound I-701] | 75 to 100
CCOC(=O)c1cc2ccc(C(N)=NO)cc2n1Cc1cc(S(=O)(=O)c2ccccc2)cc2ccccc12 [Compound I-658] | 0 to 25
N=C(N)c1ccc2cc(CC(=O)N[C@H]3CC[C@H](N)CC3)n(Cc3cccc4ccccc34)c2c1 [Compound I-717] | 75 to 100
CCCCCCOC(=O)NC(=N)c1ccc2cc(C(=O)NC3CCN(C)CC3)n(Cc3cccc4ccccc34)c2c1 [Compound I-765] | 0 to 25
N=C(N)c1ccc2cc(C(=O)N[C@H]3CC[C@H](N)CC3)n(Cc3cccc4cc(OCc5ccccc5)ccc34)c2c1 [Compound I-740] | 75 to 100
N/C(=N/O)c1ccc2cc(C(=O)O)n(Cc3cc(Oc4ncccn4)cc4ccccc34)c2c1 [Compound I-643, (Z)-6-(N′-hydroxycarbamimidoyl)-1-((3-(pyrimidin-2-yloxy)naphthalen-1-yl)methyl)-1H-indole-2-carboxylic Acid] | 0 to 25
CS(=O)(=O)N[C@H]1CC[C@@H](NC(=O)c2cc3ccc(C(=N)N)cc3n2Cc2cccc3ccccc23)CC1 [Compound I-728] | 75 to 100
N=C(N)c1ccc2cc(C(=O)N[C@H]3CC[C@H](N)CC3)n(Cc3cccc4c(OCc5ccccc5)cccc34)c2c1 [Compound I-769] | 75 to 100
N=C(N)c1ccc2cc(N3CCOC3=O)n(Cc3cccc4ccccc34)c2c1 [Compound I-726, 1-(naphthalen-1-ylmethyl)-2-(2-oxooxazolidin-3-yl)-1H-indole-6-carboximidamide] | 25 to 50
N=C(N)c1ccc2cc(-c3nccs3)n(Cc3cccc4ccccc34)c2c1 [Compound I-750, 1-(naphthalen-1-ylmethyl)-2-(thiazol-2-yl)-1H-indole-6-carboximidamide] | 50 to 75
CS(=O)(=O)Oc1cc(Cn2c(C(=O)O)cc3ccc(C(=N)N)cc32)c2ccccc2c1 [Compound I-623] | 50 to 75

Same assay, conditions: 1 uM compound; Assay Used = B; read-out: Mar-2 % inhibition at 1 uM

SMILES | inhibition at 1 µM [%]
NCc1ccc2cc(C(=O)N[C@H]3CC[C@H](N)CC3)n(Cc3cccc4ccccc34)c2c1 [Compound I-531, N-((1r,4r)-4-aminocyclohexyl)-6-(aminomethyl)-1-(naphthalen-1-ylmethyl)-1H-indole-2-carboxamide] | 50 to 75
N=C(N)c1ccc2cc(C(=O)N3CC[C@@H](O)C3)n(Cc3cccc4ccccc34)c2c1 [Compound I-441] | 25 to 50
N=C(N)c1ccc2cc(C(=O)NCCN)n(Cc3cccc4ccccc34)c2c1 [Compound I-465] | 75 to 100
CN(C)[C@H]1CC[C@H](NC(=O)c2cc3ccc(C(=N)N)cc3n2Cc2cccc3ccccc23)CC1 [Compound I-469] | 75 to 100
NCc1ccc2cc(C(=O)N[C@H]3CC[C@H](O)CC3)n(Cc3cccc4ccccc34)c2c1 [Compound I-532] | 25 to 50
COCc1c(C(=O)N[C@H]2CC[C@H](N)CC2)n(Cc2cccc3ccccc23)c2cc(C(=N)N)ccc12 [Compound I-517, N-((1r,4r)-4-aminocyclohexyl)-6-carbamimidoyl-3-(methoxymethyl)-1-(naphthalen-1-ylmethyl)-1H-indole-2-carboxamide] | 50 to 75
N=C(N)c1ccc2cc(C(=O)N[C@H]3CC[C@H](N)CC3)n(Cc3cccc4ccccc34)c2c1 [Compound I-407] | 75 to 100
COC(=O)c1cc2ccc(C(=N)N)cc2n1Cc1cccc2ccccc12 [Compound I-486, Methyl 6-carbamimidoyl-1-(naphthalen-1-ylmethyl)-1H-indole-2-carboxylate] | 25 to 50
COC(=O)NCCNC(=O)c1cc2ccc(C(=N)N)cc2n1Cc1cc(Oc2ncccn2)cc2ccccc12 [Compound I-564] | 75 to 100
CC(C)(C)OC(=O)NC(=N)c1ccc2cc(C(=O)NC3CCC(NC(=O)OC(C)(C)C)CC3)n(Cc3cccc(Cl)c3Cl)c2c1 (stereo not drawn) [Compound I-493] | 0 to 25
N=C(N)c1ccc2cc(C(=O)N3CC4CC3CN4)n(Cc3cccc4ccccc34)c2c1 (stereo not drawn) [Compound I-454] | 75 to 100
N=C(N)c1ccc2cc(CO)n(Cc3cccc4ccccc34)c2c1 [Compound I-487, 2-(hydroxymethyl)-1-(naphthalen-1-ylmethyl)-1H-indole-6-carboximidamide] | 50 to 75
CC(C)(C)OC(=O)N[C@H]1CC[C@H](NC(=O)c2cc3ccc(C(=N)N)cc3n2CCc2cccc3ccccc23)CC1 [Compound I-404] | 0 to 25
COC(=O)NC(=N)c1ccc2cc(C(=O)O)n(Cc3cc(Oc4ncccn4)cc4ccccc34)c2c1 [Compound I-561] | 25 to 50
N=C(N)c1ccc2cc(C(=O)N3CCN(C(=O)CN)CC3)n(Cc3cccc4ccccc34)c2c1 [Compound I-431] | 50 to 75
NCc1ccc2cc(C(=O)NCC3CCNCC3)n(Cc3cccc4ccccc34)c2c1 [Compound I-534] | 25 to 50
CNC(=N)c1ccc2cc(C(=O)NC3CCC(NC(=O)OC(C)(C)C)CC3)n(Cc3ccc4ccccc4c3)c2c1 (stereo not drawn) [Compound I-412] | 25 to 50
CC1(O)CCC(NC(=O)c2cc3ccc(C(=N)N)cc3n2Cc2cccc3ccccc23)CC1 (stereo not drawn) [Compound I-436] | 50 to 75
N=C(N)c1ccc2cc(C(=O)N[C@H]3CC[C@H](N)CC3)n(Cc3ccc(C(=O)O)c4ccccc34)c2c1 [Compound I-508] | 25 to 50
CC(C)(C)OC(=O)N[C@H]1CC[C@H](c2nnc(-c3cc4ccc(C(=N)N)cc4n3Cc3cccc4ccccc34)o2)CC1 [Compound I-524, tert-butyl ((1r,4r)-4-(5-(6-carbamimidoyl-1-(naphthalen-1-ylmethyl)-1H-indol-2-yl)-1,3,4-oxadiazol-2-yl)cyclohexyl)carbamate] | 25 to 50
N=C(N)c1ccc2cc(C(=O)NCCO)n(Cc3cc(Oc4ncccn4)cc4ccccc34)c2c1 [Compound I-582] | 75 to 100
N=C(N)c1ccc2c(N)c(C(=O)N[C@H]3CC[C@H](N)CC3)n(Cc3cccc4ccccc34)c2c1 [Compound I-511, 3-amino-N-((1r,4r)-4-aminocyclohexyl)-6-carbamimidoyl-1-(naphthalen-1-ylmethyl)-1H-indole-2-carboxamide] | 75 to 100
N=C(N)c1ccc2cc(C(=O)N[C@H]3CC[C@H](N)CC3)n(Cc3ccccc3-c3ccccc3)c2c1 [Compound I-510] | 0 to 25

Same assay, conditions: at 1 uM; Assay Used = B; read-out: Mar-2 % inhibition at 1 uM

SMILES | inhibition at 1 µM [%]
N=C(N)c1ccc2cc(C(=O)N[C@H]3CC[C@H](N)CC3)n(Cc3ccc4ccccc4c3)c2c1 [Compound I-233] | 25 to 50

Same assay, conditions: compound at 1 uM; Assay Used: B; read-out: Mar-2 % inhibition at 1 uM

SMILES | inhibition at 1 µM [%]
N=C(N)c1ccc2cc(C(=O)NC3CCNC[C@@H]3F)n(Cc3cccc4ccccc34)c2c1 (stereo partly drawn) [Compound I-816] | 75 to 100
